What is called solubility (kinetic) is the concentration staying in solution when a stock, usually in DMSO, is diluted into the medium. One may read the IC50 as the concentration that inhibits the measured activity by half. Low values mean greater potency, high ones weaker potency.

Converted amounts (≈) assume the structure as drawn. Read-outs that look alike come from different tables or passages of the source.

One compound from patent publication US9056111B1, “Selective efflux inhibitors and related pharmaceutical compositions and methods of treatment” (STC.UNM, priority 2011, dated 2015) can be followed below.

One data set has as its target 50 kinases. The data set is described as follows: Kinase profiling (KinaseSeeker, split-luciferase). Format: biochemical. The note with it: 10 μM. The procedure: Since ABC transporters are ATP dependent efflux pumps and several kinase targets have been implicated in the patent literature with structurally similar scaffolds, SID 88095709 was profiled against 50 kinasesat a single concentration of 10 μM to assess promiscuity of the chemotype.^66 SID 88095709 was dissolved in DMSO and tested at a final concentration of 10 μM. Prior to initiating a profiling campaign, the compound was evaluated for false positive against split-luciferase. Profiling was done in duplicate for SID 88095709 against each kinase. The Percent Inhibition and Percent Activity Remaining arecalculated using the following equation: % Inhibition=ALUControl−ALUSample×100 ALUControl % Activity Remaining=100−% Inhibition The team has also submitted SID 88095709 and the analog SID 97301789 to the NIH National Cancer Institute to elucidate the effect of SID 88095709 on the cancer cell line panel. Discussion

Data set [1] is described as follows: Aqueous stability in PBS at room temperature. The format is physicochemical. The procedure:
Aqueous stability was measured at room temperature (23° C.) in PBS (no antioxidants or other protectants and DMSO concentration below 0.1%). The stability of SID 88095709, determined as the percent of compound remaining after 48 hours, was 10%.^64Stability data are depicted as a graph showing the loss of compound with time over a 48 hour period with a minimum of 6 time points and provide the percent remaining compound at end of the 48 hours (FIG. 3, closed circles).
The stability data under these conditions overlain in the FIG. 3 and is also depicted as a graph showing the loss of compound with time over a 48 hour period with a minimum of 6 time points and provide the percent remaining compound at end of the 48 hours (FIG. 3, closed triangles). The addition of acetonitrile appears to have solubilized the compound and provided a more accurate reading of the stability, which is now 100% remaining after 48 hours.

A further data set concerns Ig-MXP3 cells. The data set is described as follows: Direct cytotoxicity (Toxic Dose 50) without chemotherapeutic. Format: cell-based. The note with it: Ig-MXP3 cells, inhibitor without chemotherapeutic.
Data set [2] is described as follows: Flow cytometric kinetic solubility. Format: physicochemical. Particulars: kinetic from dmso stock. The source says:
Applying a flow cytometrickinetic solubility protocol,^65 we were also able to compare solubility across primary, secondary, and profiling buffer conditions in house. […] This is approximately three fold higher than reported above; however, our protocol uses 1% DMSO as compared to 0.1%. […] The presence of fetal bovine serum also affects compound availability and in the primary assay screening buffer (6.7% FBS in PBS, 1% DSMO) the precipitation was inhibited slightly with no particulate noted at 3 μg/mL. […] In general, we are confident that compound availability is sufficient for the concentration ranges discussed for this scaffold set in our described biological systems.
Background: A flow cytometer gives signals particle by particle.

Data set [3] has as its system ABCB1 over-expressing Jurkat-DNR cells. In words: Chemoreversal assay: potentiation of daunorubicin (DNR) killing. The format is cell-based. The note with it: constant 100 nM DNR, varied inhibitor dose, read-out: CR50 ABCB1.
Description: Cells (ABCB1, Jurkat-DNR or ABCG2 Ig-MXP3) are incubated with the test compound (3 order of magnitude concentration range) over a 3-day and 7-day period in the presence of the inhibitor and chemotherapeutic (ABCB1, DNR or ABCG2 MTX), such that a cell concentration of at least 1×10^5 cells/mL is maintained. Cell viability is determined by trypan blue staining and enumeration under light microscopy. […] A chemoreversal index (Chemoreversal 50, CR50) is determined from the viability assessment. Using a similar approach, a direct cytotoxicity index (Toxic Dose 50, TD50) is determined by assessment of cell death of cells grown in media alone.
Cells (ABCB1, Jurkat-DNR or ABCG2 Ig-MXP3) were incubated with the test compound in a 3 order of magnitude concentration range over three and seven day periods in the presence of the inhibitor and chemotherapeutic (ABCB1, 100 nM DNR or ABCG2 30 nM MTX), such that a cell concentration of at least 1×10^5 cells mL^−1 was maintained. Cell viability was determined by trypan blue staining and enumeration under light microscopy. […] A chemoreversal index (Chemoreversal 50, CR50) was determined from the viability assessment. Using a similar approach, a direct cytotoxicity index (Toxic Dose 50, TD50) was determined by assessment of cell death of cells grown in media alone.
The target in another data set is T1, ABCB1 / ABCG2 (Homo sapiens, UniProt Q9UNQ0).
T1 sequence (Q9UNQ0 1-655): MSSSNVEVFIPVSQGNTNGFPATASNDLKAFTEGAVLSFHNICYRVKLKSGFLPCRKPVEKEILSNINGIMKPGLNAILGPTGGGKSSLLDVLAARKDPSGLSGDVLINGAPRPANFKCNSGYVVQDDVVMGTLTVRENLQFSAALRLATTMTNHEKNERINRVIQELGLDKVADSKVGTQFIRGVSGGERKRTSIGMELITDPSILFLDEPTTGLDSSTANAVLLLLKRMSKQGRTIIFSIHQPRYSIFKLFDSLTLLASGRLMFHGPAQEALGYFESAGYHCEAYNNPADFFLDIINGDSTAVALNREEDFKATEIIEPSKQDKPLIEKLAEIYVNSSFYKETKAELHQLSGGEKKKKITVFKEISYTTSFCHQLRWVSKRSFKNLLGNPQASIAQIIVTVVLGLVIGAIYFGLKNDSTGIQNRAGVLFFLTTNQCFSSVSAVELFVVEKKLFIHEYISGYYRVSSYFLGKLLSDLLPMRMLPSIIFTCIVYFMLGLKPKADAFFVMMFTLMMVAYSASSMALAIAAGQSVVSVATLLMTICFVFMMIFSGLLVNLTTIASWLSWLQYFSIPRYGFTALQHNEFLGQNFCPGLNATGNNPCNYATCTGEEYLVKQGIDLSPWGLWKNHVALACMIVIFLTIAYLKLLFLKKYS
The data set is described as follows: JC-1 efflux inhibition dose response, flow cytometry, Ig-MXP3 cells. The note with it: human, probe JC-1 (1 µM), ~Fold G2 Selective (B1/G2), quotient of average ABCB1 IC50 and average ABCG2 IC50, efflux assay. In a few lines: (§1)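 Ig-MXP3 (ABCG2) and Jurkat-DNR (ABCB1) cells, run separately, are pre-stained with 1 μM JC-1 and added to compound in PBS; retained dye is read by high-throughput flow cytometry with time-gated analysis.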

Another data set addresses T2, ABCG2 (Homo sapiens, UniProt Q9UNQ0).
T2 sequence (Q9UNQ0 1-655): T1 sequence (Q9UNQ0 1-655)
The data set is described as above. In a few lines: as §1

As to `O=C(c1ccoc1)N1CCN(c2cc(-c3ccco3)nc3cc(-c4ccccc4)nn23)CC1` [Compound 1, (4-(5-(furan-2-yl)-2-phenylpyrazolo[1,5-a]pyrimidin-7-yl)piperazin-1-yl)(furan-3-yl)methanone], the “kinase inhibition profile” value at 50 kinases is given as “appears to not be a kinase inhibitor”. Also, in data set [1] (PBS alone, 23° C., DMSO below 0.1%), the “Aqueous stability, percent of compound remaining after 48 hours” value worked out at 10%. The “Aqueous stability, percent remaining after 48 hours” value in data set [1] (PBS with acetonitrile (50% v/v final)) is reported as 100%. Further, the “TD50 ABCG2” value was determined as 18.30 µM with Ig-MXP3 cells and 18.3 µM with Ig-MXP3 cells (listed as SID 88095709). Also, the kinetic solubility in data set [2] (PBS with 1% DMSO, pH 7.4, aqueous buffer, PBS alone, 1% DMSO, read-out: kinetic solubility) is 2 µg/mL (≈ 4.55 µM); in data set [2] (growth media (RPMI with 10% FBS, 1% DMSO), plasma or biological fluid, read-out: kinetic solubility, no precipitate forming at), at least 6 µg/mL; in data set [2] (primary assay screening buffer (6.7% FBS in PBS, 1% DMSO), plasma or biological fluid, read-out: kinetic solubility, no particulate noted at) it was at least 3 µg/mL. The figures for the EC50 (in data set [3]; on ABCG2) were 550 nM and 130 nM, respectively. Further, the selectivity ratio at 30 min on ABCB1 / ABCG2 turned out to be 36. The IC50 against ABCG2 is 130 ± 300 nM. For the same compound, at ABCG2 (JC-1 efflux reporter system), the “fold higher potency in ABCG2 than the prior art Ko143” value was “approximately 100 fold”. In addition, the “~Fold G2 Selective (B1/G2)” value at ABCG2 (quotient of average ABCB1 IC50 and average ABCG2 IC50, efflux assay) worked out at 35.8 fold.
